According to ChEMBL document CHEMBL1143765 (Science, 2007):
The source made the active and inactive calls. The calls are words filed in the database; no cut-off is given here.

Experiments:
[1] = Displacement of [3H]leucine from Aquifex aeolicus His-LeuT expressed in Escherichia coli by scintillation proximity assay
Aquifex aeolicus = test: Inhibition of [3H]leucine transport activity of LeuT in proteoliposomes by scintillation proximity assay

Compound | IC50 [1] [µM] | Activity (Aquifex aeolicus)
CNCCCN1c2ccccc2CCc2ccccc21 [DESIPRAMINE] | 80 | Active
CNCCC(Oc1ccc(C(F)(F)F)cc1)c1ccccc1 (stereo not given) [FLUOXETINE] | 858 | –
CN(C)CCCN1c2ccccc2CCc2ccccc21 [IMIPRAMINE] | 244 | –
CNCCC=C1c2ccccc2CCc2ccccc21 [NORTRIPTYLINE] | 75 | –
